Biological target: T1, Dual specificity protein phosphatase 1 (Homo sapiens, UniProt P28562)
T1 sequence (P28562 whole entry): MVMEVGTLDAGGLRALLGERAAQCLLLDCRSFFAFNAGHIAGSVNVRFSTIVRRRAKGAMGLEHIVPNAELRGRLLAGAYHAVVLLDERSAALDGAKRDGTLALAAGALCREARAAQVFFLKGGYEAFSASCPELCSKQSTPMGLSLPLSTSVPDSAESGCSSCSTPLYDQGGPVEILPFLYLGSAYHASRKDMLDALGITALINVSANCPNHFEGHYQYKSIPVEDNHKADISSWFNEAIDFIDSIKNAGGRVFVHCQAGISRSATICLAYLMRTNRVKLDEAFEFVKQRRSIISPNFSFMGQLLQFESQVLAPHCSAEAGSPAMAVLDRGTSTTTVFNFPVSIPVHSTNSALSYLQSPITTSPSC
Assay: MKP-1 phosphatase inhibitors, dose response, biochemical, probe assessment (AID 674)

Row | Compound | IC50 [µM]
1 | Cn1ncnc2c(=O)n(C)c(=O)nc1-2 | 0.423
2 | CC(=O)Nc1cc(OC(C)=O)c2nonc2c1OC(C)=O [Acetic acid 7-acetoxy-5-acetylamino-benzo[1,2,5]oxadiazol-4-yl ester] | > 50
3 | CCn1nc(-c2cccs2)nc2c(=O)n(C)c(=O)nc1-2 [1-ethyl-6-methyl-3-thiophen-2-yl-pyrimido[5,4-e][1,2,4]triazine-5,7-dione] | 0.333
4 | [O-]/[N+](=C\c1ccncc1)c1ccccc1 | > 50
5 | c1ccc(CSc2nnc(-c3ccco3)c(-c3ccco3)n2)cc1 [MLS-0029114.0001] | > 50
6 | O=C1Cc2ccccc2C(=O)N1CCc1ccccc1 [2-(2-phenylethyl)-4H-isoquinoline-1,3-dione] | > 50
7 | CCOc1ccc2noc3c2c1C(=O)c1ccccc1-3 [MLS000106837] | > 50
8 | CCOC(=O)C(C(=O)OCC)c1cc(Br)c2noc3c2c1C(=O)c1ccccc1-3 [MLS000038842] | > 50
9 | O=C1C=Cc2ccccc2C1=O [1,2-dihydronaphthalene-1,2-dione] | > 50
10 | COc1cccc2c1NC(C(=O)O)C1CC=CC21 (stereo not drawn) [SMR000009698] | > 50
11 | [O-]/[N+](=C\c1ccc(OC(F)F)cc1)c1ccccc1 [1-[4-(difluoromethoxy)phenyl]-N-phenylmethanimine oxide] | > 50
12 | CCn1nc(-c2ccccc2)nc2c(=O)n(C)c(=O)nc1-2 [1-Ethyl-6-methyl-3-phenyl-1H-pyrimido[5,4-e][1,2,4]triazine-5,7-dione] | 0.485

More lines, now with the values ahead:

Row | IC50 [µM] | Compound
13 | > 50 | O=C(O)C1Nc2c(O)cccc2C2C=CCC12 (stereo not drawn)
14 | > 50 | O=C(NC1(O)C(=O)c2ccccc2C1=O)c1ccccc1 [N-(2-hydroxy-1,3-dioxo-2-indenyl)benzamide]
15 | > 50 | Cc1ccc2c(c1)C1C=CCC1C(C(=O)O)N2 (stereo not drawn) [MLS-0067149.0001]
16 | 7.02 | COc1ccc(Br)cc1C=c1sc2nc(-c3ccco3)nn2c1=O [5-[(5-bromanyl-2-methoxy-phenyl)methylidene]-2-(furan-2-yl)-[1,3]thiazolo[3,2-b][1,2,4]triazol-6-one]
17 | > 50 | Nc1cccc2cnccc12 [isoquinolin-5-amine]
18 | 42.5 | Cc1ccc2c(c1C)NC(C(=O)O)C1CC=CC21 (stereo not drawn)
19 | > 50 | O=C1C=Cc2ccccc2/C1=C/NC12CN3CCN(CN(C3)C1)C2 [MLS000071484]
20 | > 50 | COc1ccc2noc3c2c1C(=O)c1ccccc1-3 [MLS000106874]
21 | > 50 | COc1cccc2c(C)c(C(=O)O)[nH]c12
22 | > 50 | O=C(Nc1ccc2nc(-c3ccco3)c(-c3ccco3)nc2c1)N1CCCCCC1
23 | 8.75 | Cc1ccccc1Nc1cc2ccccc2c(O)n1 [3-[(2-methylphenyl)amino]-2H-isoquinolin-1-one]
24 | 2.38 | N#Cc1c(N)sc(=S)c2c1CCN(Cc1ccccc1)C2 [3-Amino-7-benzyl-1-thioxo-5,6,7,8-tetrahydro-1H-thiopyrano[3,4-c]pyridine-4-carbonitrile]
25 | 4.61 | O=C(OC1CCCCC1)c1ccc2c(c1)C1C=CCC1C(C(=O)O)N2 (stereo not drawn) [SMR000019385]
26 | 10.7 | Oc1nc(Nc2ccccc2)cc2ccccc12 [MLS000043701]
27 | 43.8 | Cc1c(N=c2c(=O)c3ccccc3c2=O)c(=O)n(-c2ccccc2)n1C [MLS000105950]
28 | 14.6 | N#Cc1c(N2CCCC2)nc(N)c2c(N)nc(N3CCCC3)cc12 [SMR000061605]

— BindingDB's records for doi:10.7270/Q28K77GS (University of Pittsburgh, 2007)
